One assay addresses T1, SMARCA4 (Homo sapiens, UniProt P51532).
T1 construct: endogenous in cells; host or cells: VCaP (ATCC CRL-2876)
Description: SMARCA4 degradation in VCaP cells by Western blot. It counts as cell-based. The following applies: at 100 nM; for Percent SMARCA4 degradation at 0.1 µM: VCaP, 16 h; for Percent degradation SMARCA4: 16 hours. The procedure: (§1) Example-P2: Determination of SMARCA2 and SMARCA4 Degradation in VCaP Cells by Western Blot
(§2) VCaP (ATCC CRL-2876) was plated in 6 well plates using complete Dulbecco's Modified Eagle's Medium. On the third day, compounds of present invention were added to cells from 10 mM stocks made in DMSO (Sigma Cat no. D2650). Each compound was tested at 100 nM concentration with DMSO not exceeding final percentage of 0.3 in the cells. Cells were incubated with the compound for 16 hours followed by harvesting with 1×RIPA lysis buffer (Thermo Fischer, catalogue number #89900) containing protease inhibitor cocktail (Sigma catalogue number #P-8340). Equal amount of protein was loaded on SDS PAGE gel for electrophoresis. Western blot was carried out for detection of either SMARCA2 (Cell signalling technologies, catalogue number #11966) or SMARCA4 antibody (Cell signalling technologies, catalogue number #52251). Beta-Tubulin antibody (Cell signalling technologies, catalogue number #86298) was used as loading control. Percentage of SMARCA2 or SMARCA4 degradation was calculated by using formula: […]
On the technique in general: Immunoblotting shows a protein as a band on a membrane.

A further assay concerns the target T2, SMARCA2 (Homo sapiens, UniProt P51531).
T2 construct: endogenous in cells; host or cells: VCaP (ATCC CRL-2876)
Description: SMARCA2 degradation in VCaP cells by Western blot. It counts as cell-based. The settings on record: at 100 nM, 16 hours. The procedure: as §1, §2

T1 sequence (P51532 whole entry): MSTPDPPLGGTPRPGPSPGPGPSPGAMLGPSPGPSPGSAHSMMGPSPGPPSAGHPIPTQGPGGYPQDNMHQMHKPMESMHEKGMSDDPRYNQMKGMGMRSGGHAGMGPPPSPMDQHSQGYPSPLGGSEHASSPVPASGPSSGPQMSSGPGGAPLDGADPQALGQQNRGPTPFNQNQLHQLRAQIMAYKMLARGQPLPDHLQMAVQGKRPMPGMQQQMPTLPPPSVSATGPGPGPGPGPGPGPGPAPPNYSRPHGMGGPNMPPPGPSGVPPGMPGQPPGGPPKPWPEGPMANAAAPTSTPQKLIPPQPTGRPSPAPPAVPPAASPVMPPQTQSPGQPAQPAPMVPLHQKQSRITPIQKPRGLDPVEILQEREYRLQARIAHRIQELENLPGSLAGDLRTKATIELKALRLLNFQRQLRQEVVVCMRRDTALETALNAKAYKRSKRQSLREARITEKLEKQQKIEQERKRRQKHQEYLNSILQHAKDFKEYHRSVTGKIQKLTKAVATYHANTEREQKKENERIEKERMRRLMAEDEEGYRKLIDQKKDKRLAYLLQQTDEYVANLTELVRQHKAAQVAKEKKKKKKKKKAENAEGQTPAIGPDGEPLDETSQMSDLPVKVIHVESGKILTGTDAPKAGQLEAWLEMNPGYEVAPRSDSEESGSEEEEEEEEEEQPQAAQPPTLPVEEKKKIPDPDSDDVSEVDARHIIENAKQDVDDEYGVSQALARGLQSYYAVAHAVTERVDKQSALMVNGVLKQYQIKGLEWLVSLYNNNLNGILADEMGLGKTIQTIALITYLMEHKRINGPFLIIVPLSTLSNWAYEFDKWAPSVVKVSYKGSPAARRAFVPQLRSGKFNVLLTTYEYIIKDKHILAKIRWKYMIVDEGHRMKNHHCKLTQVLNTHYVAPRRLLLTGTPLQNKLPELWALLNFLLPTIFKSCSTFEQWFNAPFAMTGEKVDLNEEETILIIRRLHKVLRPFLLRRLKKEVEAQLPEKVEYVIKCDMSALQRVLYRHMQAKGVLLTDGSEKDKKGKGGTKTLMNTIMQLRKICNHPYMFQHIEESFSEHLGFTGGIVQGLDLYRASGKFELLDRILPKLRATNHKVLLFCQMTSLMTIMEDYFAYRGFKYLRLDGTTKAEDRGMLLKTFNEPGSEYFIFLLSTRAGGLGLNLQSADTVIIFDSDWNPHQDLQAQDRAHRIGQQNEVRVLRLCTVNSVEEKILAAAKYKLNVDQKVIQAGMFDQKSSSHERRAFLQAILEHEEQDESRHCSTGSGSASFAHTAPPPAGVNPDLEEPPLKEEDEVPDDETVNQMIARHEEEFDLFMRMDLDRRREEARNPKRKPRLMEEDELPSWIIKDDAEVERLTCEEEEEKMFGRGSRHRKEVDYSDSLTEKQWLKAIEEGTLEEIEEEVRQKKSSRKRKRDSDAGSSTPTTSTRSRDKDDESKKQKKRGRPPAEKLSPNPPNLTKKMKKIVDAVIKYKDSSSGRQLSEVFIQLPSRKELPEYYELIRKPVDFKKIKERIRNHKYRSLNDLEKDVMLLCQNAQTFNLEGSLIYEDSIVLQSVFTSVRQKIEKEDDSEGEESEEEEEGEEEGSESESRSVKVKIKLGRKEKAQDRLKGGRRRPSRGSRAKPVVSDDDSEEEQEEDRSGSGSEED
T2 sequence (P51531 whole entry): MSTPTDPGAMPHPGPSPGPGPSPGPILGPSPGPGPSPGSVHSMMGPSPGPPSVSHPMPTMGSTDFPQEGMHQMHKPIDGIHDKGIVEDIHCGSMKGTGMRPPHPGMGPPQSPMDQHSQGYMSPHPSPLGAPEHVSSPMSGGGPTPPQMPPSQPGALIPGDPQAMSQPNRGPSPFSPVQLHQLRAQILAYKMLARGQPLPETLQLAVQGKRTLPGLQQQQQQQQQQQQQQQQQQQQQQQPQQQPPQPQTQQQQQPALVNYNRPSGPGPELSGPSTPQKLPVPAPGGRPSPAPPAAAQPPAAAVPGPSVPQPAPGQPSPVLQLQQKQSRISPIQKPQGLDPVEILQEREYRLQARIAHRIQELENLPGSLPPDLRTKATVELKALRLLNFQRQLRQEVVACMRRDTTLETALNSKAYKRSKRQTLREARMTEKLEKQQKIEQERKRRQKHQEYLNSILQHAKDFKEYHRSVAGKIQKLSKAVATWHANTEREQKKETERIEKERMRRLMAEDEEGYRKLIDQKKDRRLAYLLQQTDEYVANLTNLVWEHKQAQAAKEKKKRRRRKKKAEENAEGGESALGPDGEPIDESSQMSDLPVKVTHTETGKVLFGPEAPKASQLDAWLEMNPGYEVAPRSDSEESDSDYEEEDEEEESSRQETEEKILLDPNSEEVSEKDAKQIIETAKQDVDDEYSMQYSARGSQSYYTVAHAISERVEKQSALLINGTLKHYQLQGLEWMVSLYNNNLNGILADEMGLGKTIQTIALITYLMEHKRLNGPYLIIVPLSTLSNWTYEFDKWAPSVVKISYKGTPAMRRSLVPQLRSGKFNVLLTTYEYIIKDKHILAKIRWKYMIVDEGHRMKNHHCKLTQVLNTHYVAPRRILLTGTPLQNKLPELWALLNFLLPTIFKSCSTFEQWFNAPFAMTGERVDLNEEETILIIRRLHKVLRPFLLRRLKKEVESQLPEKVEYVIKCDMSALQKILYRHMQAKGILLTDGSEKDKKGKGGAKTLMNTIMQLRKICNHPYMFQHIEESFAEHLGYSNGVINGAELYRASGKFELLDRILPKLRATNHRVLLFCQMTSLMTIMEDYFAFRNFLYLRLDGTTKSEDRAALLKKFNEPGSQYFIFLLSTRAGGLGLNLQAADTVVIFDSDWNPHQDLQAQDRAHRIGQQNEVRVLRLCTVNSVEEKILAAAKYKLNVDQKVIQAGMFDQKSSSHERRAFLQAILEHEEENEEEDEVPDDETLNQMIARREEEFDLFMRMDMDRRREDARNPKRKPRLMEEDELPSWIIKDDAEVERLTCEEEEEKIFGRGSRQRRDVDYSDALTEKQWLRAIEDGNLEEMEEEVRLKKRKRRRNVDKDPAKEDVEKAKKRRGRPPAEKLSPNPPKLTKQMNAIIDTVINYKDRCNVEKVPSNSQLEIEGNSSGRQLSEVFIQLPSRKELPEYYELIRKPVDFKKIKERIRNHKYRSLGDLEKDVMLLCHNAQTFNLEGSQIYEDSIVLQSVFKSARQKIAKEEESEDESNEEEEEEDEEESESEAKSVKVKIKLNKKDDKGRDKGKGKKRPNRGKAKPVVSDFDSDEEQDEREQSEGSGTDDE

For the compound `Cc1ncsc1-c1ccc([C@H](C)NC(=O)[C@@H]2C[C@@H](O)CN2C(=O)[C@@H](NC(=O)CN2CCC(Nc3ccc(-c4cc(-c5ccccc5O)nnc4N)cc3)CC2)C(C)(C)C)cc1` [Compound 54, (2S,4R)-1-((S)-2-(2-(4-((4-(3-amino-6-(2-hydroxyphenyl)pyridazin-4-yl)phenyl)amino)piperidin-1-yl)acetamido)-3,3-dimethylbutanoyl)-4-hydroxy-N—((S)-1-(4-(4-methylthiazol-5-yl)phenyl)ethyl)pyrrolidine-2-carboxamide], the Percent SMARCA4 degradation at 0.1 µM on SMARCA4 was 97%. For the same compound, at SMARCA2, the “Percent degradation SMARCA2” value was 99%.

Regarding `Cc1ncsc1-c1ccc([C@H](C)NC(=O)[C@@H]2C[C@@H](O)CN2C(=O)[C@@H](NC(=O)CN2CCN(c3ccc(-c4cc(-c5ccccc5F)nnc4N)cc3)CC2)C(C)(C)C)cc1` [Compound 27, (2S,4R)-1-((S)-2-(2-(4-(4-(3-amino-6-(2-fluorophenyl)pyridazin-4-yl)phenyl)piperazin-1-yl)acetamido)-3,3-dimethylbutanoyl)-4-hydroxy-N—((S)-1-(4-(4-methylthiazol-5-yl)phenyl)ethyl)pyrrolidine-2-carboxamide], the Percent SMARCA4 degradation at 0.1 µM at SMARCA4 was 47%. On SMARCA2, the “Percent degradation SMARCA2” value is on record as 59%.

In turn, `Cc1ncsc1-c1ccc([C@H](C)NC(=O)[C@@H]2C[C@@H](O)CN2C(=O)[C@@H](NC(=O)Cn2cc(-c3ccc(-c4cc(-c5ccccc5O)nnc4N)cc3)cn2)C(C)(C)C)cc1` [Compound 49, (2S,4R)-1-((S)-2-(2-(4-(4-(3-amino-6-(2-hydroxyphenyl)pyridazin-4-yl)phenyl)-1H-pyrazol-1-yl)acetamido)-3,3-dimethylbutanoyl)-4-hydroxy-N-((S)-1-(4-(4-methylthiazol-5-yl)phenyl)ethyl)pyrrolidine-2-carboxamide] had a Percent SMARCA4 degradation at 0.1 µM on SMARCA4 of 0%. In addition, the “Percent degradation SMARCA2” value on SMARCA2 is recorded as 66%.

On to `Cc1ncsc1-c1ccc([C@H](C)NC(=O)[C@@H]2C[C@@H](O)CN2C(=O)C(c2cc(-c3ccc(-c4cc(-c5ccccc5F)nnc4N)cc3)no2)C(C)C)cc1` (stereo partly drawn) [Compound 9, (2S,4R)-1-(2-(3-(4-(3-amino-6-(2-fluorophenyl)pyridazin-4-yl)phenyl)isoxazol-5-yl)-3-methylbutanoyl)-4-hydroxy-N-((S)-1-(4-(4-methylthiazol-5-yl)phenyl)ethyl)pyrrolidine-2-carboxamide], for which, on SMARCA4, the Percent SMARCA4 degradation at 0.1 µM came out at 62%. In addition, the “Percent degradation SMARCA2” value at SMARCA2 was determined as 30%.

On SMARCA4, `Cc1ncsc1-c1ccc([C@H](C)NC(=O)[C@@H]2C[C@@H](O)CN2C(=O)[C@@H](NC(=O)CC#Cc2ccc(-c3cc(Cl)nnc3N)cc2)C(C)(C)C)cc1` [Compound 22, (2S,4R)-1-((S)-2-(4-(4-(3-amino-6-chloropyridazin-4-yl)phenyl)but-3-ynamido)-3,3-dimethylbutanoyl)-4-hydroxy-N-((S)-1-(4-(4-methylthiazol-5-yl)phenyl)ethyl)pyrrolidine-2-carboxamide] registered a Percent SMARCA4 degradation at 0.1 µM of 7%. Also, on SMARCA2, the “Percent degradation SMARCA2” value is listed as 2%.

For the compound `Cc1ncsc1-c1ccc([C@H](C)NC(=O)[C@@H]2C[C@@H](O)CN2C(=O)[C@@H](NC(=O)CN2CCC(c3ccc(-c4cc(-c5ccccc5O)nnc4N)cc3)CC2C)C(C)(C)C)cc1` (single isomer, unassigned) [Compound 37], on SMARCA4, the “Percent degradation SMARCA4” value is recorded as 97%. Moreover, on SMARCA2, the “Percent degradation SMARCA2” value came out at 100%.

With `Cc1ncsc1-c1ccc([C@H](C)NC(=O)[C@@H]2C[C@@H](O)CN2C(=O)[C@@H](NC(=O)CCN2CCN(c3ccc(-c4cc(-c5ccccc5O)nnc4N)cc3)CC2)C(C)(C)C)cc1` [Compound 18, (2S,4R)-1-((S)-2-(3-(4-(4-(3-amino-6-(2-hydroxyphenyl)pyridazin-4-yl)phenyl)piperazin-1-yl)propanamido)-3,3-dimethylbutanoyl)-4-hydroxy-N—((S)-1-(4-(4-methylthiazol-5-yl)phenyl)ethyl)pyrrolidine-2-carboxamide], the Percent SMARCA4 degradation at 0.1 µM on SMARCA4 came to 93%. In addition, the “Percent degradation SMARCA2” value on SMARCA2 came out at 98%.

For `Cc1ncsc1-c1ccc([C@H](C)NC(=O)[C@@H]2C[C@@H](O)CN2C(=O)[C@@H](NC(=O)CCC#Cc2ccc(-c3cc(-c4ccccc4O)nnc3N)cc2)C(C)(C)C)cc1` [Compound 20, (2S,4R)-1-((S)-2-(5-(4-(3-amino-6-(2-hydroxyphenyl)pyridazin-4-yl)phenyl)pent-4-ynamido)-3,3-dimethylbutanoyl)-4-hydroxy-N-((S)-1-(4-(4-methylthiazol-5-yl)phenyl)ethyl)pyrrolidine-2-carboxamide], the Percent SMARCA4 degradation at 0.1 µM at SMARCA4 is 97%. In addition, the “Percent degradation SMARCA2” value at SMARCA2 was determined as 98%.

`Cc1ncsc1-c1ccc([C@H](C)NC(=O)[C@@H]2C[C@@H](O)CN2C(=O)C(c2cc(-c3ccc(-c4cc(-c5ccccc5O)nnc4N)cc3)no2)C(C)C)cc1` (stereo partly drawn) [Compound 4, (2S,4R)-1-(2-(3-(4-(3-amino-6-(2-hydroxyphenyl)pyridazin-4-yl)phenyl)isoxazol-5-yl)-3-methylbutanoyl)-4-hydroxy-N—((S)-1-(4-(4-methylthiazol-5-yl)phenyl)ethyl)pyrrolidine-2-carboxamide] came in with a Percent SMARCA4 degradation at 0.1 µM at SMARCA4 of 11%. In addition, the “Percent degradation SMARCA2” value at SMARCA2 came to 98%.

For `Cc1ncsc1-c1ccc([C@H](C)NC(=O)[C@@H]2C[C@@H](O)CN2C(=O)C(c2cc(-c3ccc(-c4cc(-c5ccc[nH]c5=O)nnc4N)cc3)no2)C(C)C)cc1` (stereo partly shown) [Compound 17], the “Percent degradation SMARCA4” value at SMARCA4 is 35%. Also, the “Percent degradation SMARCA2” value at SMARCA2 came out at 7%.

With `Cc1ncsc1-c1ccc([C@H](C)NC(=O)[C@@H]2C[C@@H](O)CN2C(=O)[C@@H](NC(=O)CC2CCC(c3ccc(-c4cc(-c5ccccc5O)nnc4N)cc3)CC2)C(C)(C)C)cc1` (single isomer, unassigned) [Compound 45], at SMARCA4, the “Percent degradation SMARCA4” value is on record as 92%. For the same compound, the “Percent degradation SMARCA2” value on SMARCA2 is reported as 97%.

Consider `Cc1ncsc1-c1ccc([C@H](C)NC(=O)[C@@H]2C[C@@H](O)CN2C(=O)[C@@H](NC(=O)C(C)N2CCC(c3ccc(-c4cc(-c5ccccc5O)nnc4N)cc3)CC2)C(C)(C)C)cc1` (single isomer, unassigned) [Compound 33], for which, on SMARCA4, the Percent SMARCA4 degradation at 0.1 µM turned out to be 0%. Also, the “Percent degradation SMARCA2” value on SMARCA2 turned out to be 42%.

`Cc1ncsc1-c1ccc([C@H](C)NC(=O)[C@@H]2C[C@@H](O)CN2C(=O)[C@@H](NC(=O)CN2CCN(c3ccc(-c4cc(Cl)nnc4N)cc3)CC2)C(C)(C)C)cc1` [Compound 13, (2S,4R)-1-((S)-2-(2-(4-(4-(3-amino-6-chloropyridazin-4-yl)phenyl)piperazin-1-yl)acetamido)-3,3-dimethylbutanoyl)-4-hydroxy-N—((S)-1-(4-(4-methylthiazol-5-yl)phenyl)ethyl)pyrrolidine-2-carboxamide]: the Percent SMARCA4 degradation at 0.1 µM on SMARCA4 came out at 38%. Moreover, the “Percent degradation SMARCA2” value on SMARCA2 came to 27%.

In turn, `COc1ncccc1-c1cc(-c2ccc(N3CCN(CC(=O)N[C@H](C(=O)N4C[C@H](O)C[C@H]4C(=O)N[C@@H](C)c4ccc(-c5scnc5C)cc4)C(C)(C)C)CC3)cc2)c(N)nn1` [Compound 15, (2S,4R)-1-((S)-2-(2-(4-(4-(3-amino-6-(2-methoxypyridin-3-yl)pyridazin-4-yl)phenyl)piperazin-1-yl)acetamido)-3,3-dimethylbutanoyl)-4-hydroxy-N—((S)-1-(4-(4-methylthiazol-5-yl)phenyl)ethyl)pyrrolidine-2-carboxamide] gave a Percent SMARCA4 degradation at 0.1 µM at SMARCA4 of 16%. In addition, the “Percent degradation SMARCA2” value at SMARCA2 is on record as 8%.

With `Cc1ncsc1-c1ccc([C@H](C)NC(=O)[C@@H]2C[C@@H](O)CN2C(=O)[C@H](c2cc(-c3ccc(-c4cc(-c5ccccc5O)nnc4N)cc3)no2)C(C)C)cc1` [Compound 5, (2S,4R)-1-((S)-2-(3-(4-(3-amino-6-(2-hydroxyphenyl)pyridazin-4-yl)phenyl)isoxazol-5-yl)-3-methylbutanoyl)-4-hydroxy-N—((S)-1-(4-(4-methylthiazol-5-yl)phenyl)ethyl)pyrrolidine-2-carboxamide], the Percent SMARCA4 degradation at 0.1 µM on SMARCA4 was found to be 62%. Also, the “Percent degradation SMARCA2” value at SMARCA2 is given as 57%.

`Cc1ncsc1-c1ccc([C@H](C)NC(=O)[C@@H]2C[C@@H](O)CN2C(=O)[C@@H](NC(=O)C2CCN(c3ccc(-c4cc(-c5ccccc5O)nnc4N)cc3)CC2)C(C)(C)C)cc1` [Compound 47, 1-(4-(3-amino-6-(2-hydroxyphenyl)pyridazin-4-yl)phenyl)-N-((S)-1-((2S,4R)-4-hydroxy-2-(((S)-1-(4-(4-methylthiazol-5-yl)phenyl)ethyl)carbamoyl)pyrrolidin-1-yl)-3,3-dimethyl-1-oxobutan-2-yl)piperidine-4-carboxamide] showed a Percent SMARCA4 degradation at 0.1 µM at SMARCA4 of 95%. For the same compound, the “Percent degradation SMARCA2” value at SMARCA2 came out at 99%.

As to `Cc1ncsc1-c1ccc([C@H](C)NC(=O)[C@@H]2C[C@@H](O)CN2C(=O)C(c2cc(-c3ccc(-c4cc(-c5ccccc5C(F)F)nnc4N)cc3)no2)C(C)C)cc1` (stereo partly drawn) [Compound 8, (2S,4R)-1-(2-(3-(4-(3-amino-6-(2-(difluoromethyl)phenyl)pyridazin-4-yl)phenyl)isoxazol-5-yl)-3-methylbutanoyl)-4-hydroxy-N-((S)-1-(4-(4-methylthiazol-5-yl)phenyl)ethyl)pyrrolidine-2-carboxamide], at SMARCA4, the Percent SMARCA4 degradation at 0.1 µM turned out to be 18%. Further, on SMARCA2, the “Percent degradation SMARCA2” value was 0%.

(Values after patent US20250145609A1, “3-SUBSTITUTED PYRIDAZINE COMPOUNDS AS SMARCA2 AND/OR SMARCA4 DEGRADERS” (Aurigene Oncology Limited, priority 2022, published 2025).)
